In the supplement of paper PMC10307832:

Legend:
Experiment in all cases: relative viability (nuclei count vs DMSO), 5 days (fraction); higher = more cells survive
Motesanib + Foretinib = compound: CC1(C)CNc2cc(NC(=O)c3cccnc3NCc3ccncc3)ccc21 [Motesanib] + COc1cc2c(Oc3ccc(NC(=O)C4(C(=O)Nc5ccc(F)cc5)CC4)cc3F)ccnc2cc1OCCCN1CCOCC1 [Foretinib] (partner 0.25 µM)
How it was run: (§1)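 A single step with final 0.05% Triton X-100, 1% formaldehyde and 1 ug/ml Hoechst fixed the cells and stained nuclei 5 days after treatment. Lung cancer cell lines in 1536-well plates had been treated by pin tool the day after seeding with one drug alone or a fixed anchor-drug dose plus five library-drug doses (not always all listed) in √10 steps, and nuclei were counted on 4× images. Relative viability is the ratio of nuclei in treated wells to nuclei in vehicle wells, taken as the median of duplicate plates.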

[1] = compound: C[C@@]1(C(=O)Nc2ccc(F)nc2)CCCN1c1nc(Nc2cc(C3CC3)n[nH]2)c2cccn2n1 + Nc1ncn([C@H]2C[C@H](O)[C@@H](CO)O2)c(=O)n1 [Decitabine] (partner 2 µM)
How it was run: as §1

[2] = compound: C[C@@]1(C(=O)Nc2ccc(F)nc2)CCCN1c1nc(Nc2cc(C3CC3)n[nH]2)c2cccn2n1 + CC1(C)CCC(c2ccc(Cl)cc2)=C(CN2CCN(c3ccc(C(=O)NS(=O)(=O)c4ccc(N[C@H](CCN5CCOCC5)CSc5ccccc5)c(S(=O)(=O)C(F)(F)F)c4)cc3)CC2)C1 [Navitoclax] (partner 0.5 µM)
How it was run: as §1

Motesanib + Decitabine = compound: CC1(C)CNc2cc(NC(=O)c3cccnc3NCc3ccncc3)ccc21 [Motesanib] + Nc1ncn([C@H]2C[C@H](O)[C@@H](CO)O2)c(=O)n1 [Decitabine] (partner 2 µM)
How it was run: as §1

Cell Line | relative viability (Motesanib + Foretinib; first compound 0.01 µM) | relative viability (Motesanib + Foretinib; first compound 0.03162 µM) | relative viability (Motesanib + Foretinib; first compound 0.1 µM) | relative viability (Motesanib + Foretinib; first compound 0.3162 µM) | relative viability (Motesanib + Foretinib; first compound 1 µM) | relative viability ([1]; first compound 0.04 µM) | relative viability ([1]; first compound 0.1265 µM) | relative viability ([1]; first compound 0.4 µM) | relative viability ([1]; first compound 1.265 µM) | relative viability ([2]; first compound 0.04 µM) | relative viability ([2]; first compound 0.1265 µM) | relative viability ([2]; first compound 0.4 µM) | relative viability ([2]; first compound 1.265 µM) | relative viability (Motesanib + Decitabine; first compound 0.01 µM) | relative viability (Motesanib + Decitabine; first compound 0.03162 µM) | relative viability (Motesanib + Decitabine; first compound 0.1 µM) | relative viability (Motesanib + Decitabine; first compound 0.3162 µM) | relative viability (Motesanib + Decitabine; first compound 1 µM)
HCC-827 | 0.963 | 1.09 | 1.02 | 1.08 | 1.03 | 0.295 | 0.312 | 0.351 | 0.305 | 1.02 | 1 | 1.01 | 1 | 0.332 | 0.421 | 0.406 | 0.344 | 0.309
HOP-62 | 1.17 | 1.1 | 1.02 | 1.1 | 1.21 | 0.181 | 0.203 | 0.224 | 0.173 | 1.12 | 0.887 | 0.826 | 1.03 | 0.179 | 0.233 | 0.573 | 0.608 | 0.774
IA-LM | 1.12 | 1.1 | 1.23 | 1.07 | 1.19 | – | – | – | – | 0.983 | 0.904 | 0.746 | 0.593 | – | – | – | – | –
LC-2-ad | 0.875 | 0.988 | 0.893 | 0.984 | 1.02 | 0.82 | 0.73 | 0.66 | 0.606 | 0.379 | 0.373 | 0.296 | 0.143 | 0.776 | 0.758 | 0.776 | 0.772 | 0.753
LCLC-97TM1 | 0.948 | 0.968 | 0.976 | 0.919 | 0.979 | 0.228 | 0.131 | 0.111 | 0.271 | 0.117 | 0.32 | 0.196 | 0.324 | 0.251 | 0.26 | 0.285 | 0.261 | 0.295
LCLC-103H | 0.809 | 0.707 | 0.844 | 0.867 | 0.937 | 0.745 | 0.661 | 0.71 | 0.712 | – | – | – | – | 0.774 | 0.729 | 0.833 | 0.815 | 0.759
LK-2 | 1.21 | 1.08 | – | 1.27 | 1.31 | – | 0.171 | 0.18 | 0.162 | – | 0.843 | 0.368 | 0.494 | 0.251 | 0.398 | 0.28 | 0.285 | 0.374
LOU-NH91 | 0.97 | 0.929 | 0.91 | 0.948 | 1.02 | 0.774 | 0.874 | 0.744 | 0.771 | 0.706 | 0.77 | 0.61 | 0.686 | 0.829 | 0.815 | 0.848 | 0.838 | 0.809
LU99A | 0.795 | 0.813 | 0.734 | 0.898 | 0.89 | 0.764 | 0.585 | 0.527 | 0.738 | 0.652 | 0.71 | 0.491 | 0.574 | 0.752 | 0.916 | 0.876 | 0.847 | 1.01
LXF-289 | 1 | 0.952 | 0.924 | 1.03 | 0.987 | 0.361 | 0.385 | 0.394 | 0.383 | 0.987 | 0.917 | 0.941 | 0.991 | 0.406 | 0.427 | 0.617 | 0.651 | 0.688
NCI-H23 | 0.952 | 0.718 | 0.892 | 1.38 | 0.933 | 0.274 | 0.253 | 0.258 | 0.271 | 0.658 | 0.587 | 0.444 | 0.664 | 0.31 | 0.382 | 0.436 | 0.52 | 0.523
NCI-H358 | 0.599 | 0.712 | 0.67 | 0.807 | 0.629 | 0.212 | 0.146 | 0.165 | 0.116 | – | – | – | – | 0.197 | 0.261 | 0.257 | 0.314 | 0.276
NCI-H522 | – | – | – | – | – | 0.616 | 0.607 | 0.591 | 0.639 | – | – | – | – | 0.615 | 0.675 | 0.639 | 0.725 | 0.691
NCI-H650 | 1.05 | – | 1.02 | 0.974 | 1.02 | 0.291 | 0.311 | 0.305 | 0.29 | – | – | – | – | 0.31 | 0.319 | 0.312 | 0.382 | 0.529
NCI-H661 | 0.998 | 1.1 | 0.991 | 1.13 | 0.9 | 0.528 | 0.514 | 0.54 | 0.547 | – | – | – | – | 0.486 | 0.528 | 0.556 | 0.631 | 0.625
NCI-H1299 | 1.06 | 1.11 | 1.11 | 1.16 | 1.12 | – | – | – | – | 1.08 | 0.976 | 1.04 | 1.02 | – | – | – | – | –
NCI-H1563 | 0.904 | 0.899 | 0.915 | 0.909 | 0.889 | – | – | – | – | – | – | – | – | – | – | – | – | –
NCI-H1648 | – | – | – | – | – | 0.465 | 0.464 | 0.416 | 0.361 | – | – | – | – | 0.498 | – | – | 0.531 | 0.42
NCI-H1703 | 0.349 | 0.318 | 0.325 | 0.395 | 0.355 | – | – | – | – | 1.25 | 1.02 | 0.783 | 0.743 | – | – | – | – | –
NCI-H1792 | – | – | – | – | – | 0.401 | 0.235 | 0.249 | 0.304 | 0.422 | 0.36 | 0.464 | 0.393 | 0.48 | 0.642 | 0.594 | 0.657 | 0.878
NCI-H2228 | 0.995 | 0.937 | 0.902 | 1.02 | 0.796 | – | – | – | – | 0.561 | 0.762 | 0.723 | 0.633 | – | – | – | – | –
NCI-H2342 | 1.03 | 1.09 | 1.12 | 1.1 | 0.971 | 0.685 | 0.636 | 0.559 | 0.671 | – | – | – | – | 0.765 | 0.608 | 0.759 | 0.765 | 0.9
SW 900 | 0.824 | 0.9 | 1.36 | 0.887 | 0.874 | 0.403 | 0.437 | 0.351 | 0.349 | – | – | – | – | 0.58 | 0.475 | 0.632 | 0.677 | 0.749
